Laboratory results reported in publication PMC11934087, “Rational Design of Stapled Covalent Peptide Modifiers of Oncoprotein E6 from Human Papillomavirus” (ACS Chemical Biology, 2025).
Where a SMILES comes first, the peptide text is derived from it. Bridges are numbered along the chain shown (N, C = ends). [ ]: non-standard residue; d: D form. The star is where a group is joined. 5FAM = O=C1OC2(c3ccc(O)cc3Oc3cc(O)ccc32)c2ccc(C(=O)*)cc21; S5 = C=CCCC[C@](C)(N)C(=O)O; βAla = NCCC(=O)O

Assays:
[1] = biological target: T1, GST-E6 (GST-tagged HPV16 E6 protein) (Human papillomavirus type 16, UniProt P03126); test: Noncompetitive fluorescence polarization (FP) binding assay; set-up: species or system Human Papillomavirus (HPV-16)
T1 construct: host or cells: E. coli BL21
Method: An N-terminal carboxyfluorescein was included for FP analysis of binding affinity for both the natural backbone and the stapled peptides.
For noncompetitive FP experiments, varying concentrations of GST-E6 protein (38 μM; 10 point 2-fold serial dilution) were incubated with 30 nM fluorescently labeled peptides in buffer (10 μL total volume; 50 mM Tris, 200 mM NaCl, 1 mM DTT, 0.1% [v/v] Trition X-100) in black 384-well plates. For competitive FP experiments, 100 nM GST-E6 was incubated with 30 nM fluorescently labeled noncovalent peptide and varying concentrations (20 μM; 3-fold serial dilution) of covalent peptide in buffer (20 μL) with a final DMSO content of 0.5% [v/v]. Negative control (polarization reference; 30 nM fluorescent peptide, no protein) and blank reference (buffer alone) were included in triplicate for G-factor calibration. Sample plates were centrifuged (1 min, 500g) and incubated for 30 min at RT. Following incubation, FP at equilibrium was measured on a Tecan M1000 microplate reader (ex = 470 nm, em = 525; gain optimized, 200 flashes, 300 ms settle time, G-factor reference value 30 mP). Measured polarizations were fitted to a sigmoidal dose–response curve using GraphPad Prism software to generate KD values.

[2] = Circular dichroism spectroscopy, percent helicity; type: physicochemical; conditions: 50 μM peptide, 10 mM phosphate buffer pH 7.2, 0.5% DMSO, 20 °C
Method: To determine the secondary structure of peptides 1–11, CD was measured in an aqueous solution. […] The molar ellipticity ([θ]) at 222 nm was used to estimate the percent helicity of peptides in aqueous solutions and enable direct comparison of the helical content of peptides 1–11 (Figure 5C).[51],[52]
CD measurements were acquired on an Olis DSM17 CD spectrophotometer. Cells with a path length of 2 mm were used. Peptide solutions at 50 μM were prepared in 10 mM phosphate buffer (500 μL; pH = 7.2) containing 0.5% of DMSO, and exact concentrations were determined using fluorescein absorbance at 494 nm and a molar extinction coefficient of 82,000 cm^–1 M^–1.[59] Blank solutions of buffer without peptide were prepared for background subtraction. Scans were performed at 20 °C from 200 to 260 nm with increments of 1 nm, bandwidth of 2 nm, and a 5 s integration time. […] Helical content for peptides was calculated using a previously described method[52] that assumes that the peptide population only exists in two states, helical and random coil, and that the ellipticity contribution from the random coil population is negligible at 222 nm. […] This was calculated via the equation [θobs]222 = 43,000(1 – [x/n]), where x is the factor accounting for end effects, for which 2.5 was used, and n is the number of residues.[52]

in vitro = conditions: bovine α-chymotrypsin (50 nM), pH 7.5
Method: (§1) Chymotrypsin was chosen due to its substrate selectivity for peptides containing hydrophobic side chains, including leucine, making the LxxLL motif a well-suited substrate for proteolytic cleavage by this protease.[54]
(§2) For each time point, a 50 μL aliquot was removed from the reaction mixture and quenched with 40 μL of 0.5% [v/v] trifluoroacetic acid in acetonitrile. Quenched samples were subsequently analyzed by analytical reverse-phase HPLC, and the remaining undigested peptide was quantified by integration of AUC. A plot of percent peptide remaining vs time was fit to a one-phase exponential decay to calculate half-life using GraphPad Prism software.

bovine α-chymotrypsin = bovine α-chymotrypsin (Bos taurus, UniProt P00766); test: in vitro; conditions: 50 μM peptide, 50 nM bovine α-chymotrypsin, pH 7.5, room temp, 4 h; HPLC
Method: as §1, §2

T1 sequence (P03126 whole entry): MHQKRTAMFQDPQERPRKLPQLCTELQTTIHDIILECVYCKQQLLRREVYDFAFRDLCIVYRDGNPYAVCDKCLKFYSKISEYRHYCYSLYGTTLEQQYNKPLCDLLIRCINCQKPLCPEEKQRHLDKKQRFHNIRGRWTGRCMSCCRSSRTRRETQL

Row | Compound | Kd [1] [µM] | Percent helicity from molar ellipticity at 222 nm (CD) [2] [%] | half-life at 50 μM (in vitro) [min] | degradation by chymotrypsin within 4 h (bovine α-chymotrypsin) | EC50 [1] [µM]
1 | CC(C)C[C@H](NC(=O)[C@H](CC(C)C)NC(=O)[C@H](CCC(=O)O)NC(=O)[C@]1(C)CCCC=CCCC[C@](C)(NC(=O)[C@H](C)NC(=O)[C@H](C)NC(=O)[C@H](C)NC(=O)CCNC(=O)c2ccc3c(c2)C(=O)OC32c3ccc(O)cc3Oc3cc(O)ccc32)C(=O)N[C@@H](CC(C)C)C(=O)N[C@@H]([C@@H](C)O)C(=O)N[C@@H](CC(C)C)C(=O)N1)C(=O)NCC(N)=O [compound 6] ({5FAM-βAla}-AAA[S5]LTL[S5]ELLG-NH2; staple 4-8) | ≥ 38 | 22 | – | – | –
2 | CC(C)C[C@H](NC(=O)[C@H](CC(C)C)NC(=O)[C@H](CCC(=O)O)NC(=O)[C@H](CCC(N)=O)NC(=O)[C@H](CC(C)C)NC(=O)[C@@H](NC(=O)[C@H](CC(C)C)NC(=O)[C@H](CCC(=O)O)NC(=O)[C@H](C)NC(=O)[C@H](C)NC(=O)[C@H](C)NC(=O)CCNC(=O)c1ccc2c(c1)C(=O)OC21c2ccc(O)cc2Oc2cc(O)ccc21)[C@@H](C)O)C(=O)NCC(N)=O [compound 1] ({5FAM-βAla}-AAAELTLQELLG-NH2) | 2.59 | – | 47 | complete degradation | 2.59
